Results taken from patent US4156724A, “N-acylamino-alpha-arylacetamido cephalosporins and antibacterial compositions and methods containing them” (Sumitomo Chemical Company, Limited, priority 1974, dated 1979).
≈ marks a conversion by molar mass, not a printed value.

Tests used:
Format in all cases: cell-based
[1] = test system: Enterobacter aerogeneus No. 75; test: Minimum Inhibitory Concentration, Enterobacter aerogeneus No. 75; settings: Enterobacter aerogeneus No. 75; read-out: Minimum Inhibitory Concentration
Experimental: (§1) anti-microbial activity tests were carried out on the compounds obtained in the Examples.

[2] = test system: Proteus vulgaris HX 19; test: Minimum Inhibitory Concentration, Proteus vulgaris HX 19; settings: HX19; Proteus vulgaris HX 19; read-out: Minimum Inhibitory Concentration
Experimental: as §1

[3] = test system: Staphylococcus aureus 209 P; test: Minimum Inhibitory Concentration, Staphylococcus aureus 209 P; settings: Staphylococcus aureus 209 P; read-out: Minimum Inhibitory Concentration
Experimental: as §1

[4] = test system: Staphylococcus aureus FS 289; test: Minimum Inhibitory Concentration, Staphylococcus aureus FS 289; settings: FS289; Staphylococcus aureus FS 289, strain resistant to penicillin; read-out: Minimum Inhibitory Concentration
Experimental: as §1
*Staphylococcus aureus FS 289: strain resistant to penicillin

[5] = test system: Escherichia coli NIHJ; test: Minimum Inhibitory Concentration, Escherichia coli NIHJ; settings: Escherichia coli NIHJ; read-out: Minimum Inhibitory Concentration
Experimental: as §1

[6] = test system: Serratia No. 72; test: Minimum Inhibitory Concentration, Serratia No. 72
Experimental: as §1

[7] = test system: Klebsiella pneumoniae 602; test: Minimum Inhibitory Concentration, Klebsiella pneumoniae 602; settings: Klebsiella pneumoniae, 602, Klebsiella pneumoniae 602; read-out: Minimum Inhibitory Concentration
Experimental: as §1

[8] = test system: Pseudomonas aeruginosa 104; test: Minimum Inhibitory Concentration, Pseudomonas aeruginosa 104; settings: Pseudomonas aeruginosa 104; read-out: Minimum Inhibitory Concentration
Experimental: as §1

Work on NC(=O)Nc1ccc([C@@H](NC(=O)c2cnccc2O)C(=O)N[C@@H]2C(=O)N3C(C(=O)O)=C(CSc4cnn[nH]4)CS[C@H]23)cc1 [Example 14] yielded an MIC [1] of 12.5 µg/mL (≈ 20 µM), an MIC [2] of 0.1 µg/mL (≈ 0.16 µM) and an MIC [3] of 0.39 µg/mL (≈ 0.623 µM). It also gave an MIC [4] of 6.25 µg/mL (≈ 9.99 µM), an MIC [5] of 6.25 µg/mL (≈ 9.99 µM) and an MIC [6] of 50 µg/mL (≈ 79.9 µM). The MIC [7] was 6.25 µg/mL (≈ 9.99 µM) and the MIC [8] was 6.25 µg/mL (≈ 9.99 µM).
Cc1nnc(SCC2=C(C(=O)O)N3C(=O)[C@@H](NC(=O)[C@H](NC(=O)c4ccnnc4O)c4cccc(NC(N)=O)c4)[C@H]3SC2)s1 [Example 15] gave an MIC [1] of 6.25 µg/mL (≈ 9.5 µM), an MIC [2] of 0.1 µg/mL (≈ 0.152 µM) and an MIC [3] of 0.39 µg/mL (≈ 0.593 µM). It also gave an MIC [4] of 6.25 µg/mL (≈ 9.5 µM), an MIC [5] of 12.5 µg/mL (≈ 19 µM) and an MIC [6] of 50 µg/mL (≈ 76 µM). For the same molecule, the MIC [7] was 3.13 µg/mL (≈ 4.76 µM) and the MIC [8] was 6.25 µg/mL (≈ 9.5 µM).
Cc1nnc(SCC2=C(C(=O)O)N3C(=O)[C@@H](NC(=O)[C@H](NC(=O)c4ccnnc4O)c4ccc(NC(N)=O)cc4)[C@H]3SC2)s1 [Example 16] was tested, and the MIC [1] was 6.25 µg/mL (≈ 9.5 µM), the MIC [2] was 0.2 µg/mL (≈ 0.304 µM) and the MIC [3] was 0.39 µg/mL (≈ 0.593 µM). For the same molecule, the MIC [4] was 6.25 µg/mL (≈ 9.5 µM), the MIC [5] was 6.25 µg/mL (≈ 9.5 µM) and the MIC [6] was 50 µg/mL (≈ 76 µM). The MIC [7] was 3.13 µg/mL (≈ 4.76 µM) and the MIC [8] was 6.25 µg/mL (≈ 9.5 µM).
Cn1nnnc1SCC1=C(C(=O)O)N2C(=O)[C@@H](NC(=O)[C@H](NC(=O)c3ccnnc3O)c3ccc(NC(N)=O)cc3)[C@H]2SC1 [Example 17] gave an MIC [1] of 12.5 µg/mL (≈ 19.5 µM), an MIC [2] of 0.1 µg/mL (≈ 0.156 µM) and an MIC [3] of 0.39 µg/mL (≈ 0.608 µM). The MIC [4] was 6.25 µg/mL (≈ 9.74 µM), the MIC [5] was 6.25 µg/mL (≈ 9.74 µM) and the MIC [6] was 50 µg/mL (≈ 77.9 µM). For the same molecule, the MIC [7] was 3.13 µg/mL (≈ 4.88 µM) and the MIC [8] was 6.25 µg/mL (≈ 9.74 µM).
Molecule NC(=O)Nc1ccc([C@@H](NC(=O)c2ccnnc2O)C(=O)N[C@@H]2C(=O)N3C(C(=O)O)=C(CSc4cnn[nH]4)CS[C@H]23)cc1 [Example 18] has an MIC [1] of 12.5 µg/mL (≈ 19.9 µM), an MIC [2] of 0.2 µg/mL (≈ 0.319 µM) and an MIC [3] of 0.39 µg/mL (≈ 0.622 µM). For the same molecule, the MIC [4] was 6.25 µg/mL (≈ 9.97 µM), the MIC [5] was 6.25 µg/mL (≈ 9.97 µM) and the MIC [6] was 50 µg/mL (≈ 79.8 µM). For the same molecule, the MIC [7] was 6.25 µg/mL (≈ 9.97 µM) and the MIC [8] was 6.25 µg/mL (≈ 9.97 µM).
NC(=O)Nc1ccc([C@@H](NC(=O)c2cncnc2O)C(=O)N[C@@H]2C(=O)N3C(C(=O)O)=C(CSc4nncs4)CS[C@H]23)cc1 [Example 19] gave an MIC [1] of 25 µg/mL (≈ 38.8 µM), an MIC [2] of 0.2 µg/mL (≈ 0.311 µM) and an MIC [3] of 0.39 µg/mL (≈ 0.606 µM). The MIC [4] was 6.25 µg/mL (≈ 9.71 µM), the MIC [5] was 12.5 µg/mL (≈ 19.4 µM) and the MIC [6] was 50 µg/mL (≈ 77.7 µM). It also gave an MIC [7] of 6.25 µg/mL (≈ 9.71 µM) and an MIC [8] of 12.5 µg/mL (≈ 19.4 µM).
Molecule Cc1nnc(SCC2=C(C(=O)O)N3C(=O)[C@@H](NC(=O)[C@H](NC(=O)c4cnc5cccnc5c4O)c4ccc(NC(N)=O)cc4)[C@H]3SC2)s1 [Example 20] has an MIC [1] of 3.13 µg/mL (≈ 4.42 µM), an MIC [2] of 0.1 µg/mL (≈ 0.141 µM) and an MIC [3] of 0.78 µg/mL (≈ 1.1 µM). It also gave an MIC [4] of 3.13 µg/mL (≈ 4.42 µM), an MIC [5] of 3.13 µg/mL (≈ 4.42 µM) and an MIC [6] of 12.5 µg/mL (≈ 17.7 µM). For the same molecule, the MIC [7] was 1.56 µg/mL (≈ 2.2 µM) and the MIC [8] was 3.13 µg/mL (≈ 4.42 µM).
NC(=O)Nc1ccc([C@@H](NC(=O)c2cnc3cccnc3c2O)C(=O)N[C@@H]2C(=O)N3C(C(=O)O)=C(CSc4nncs4)CS[C@H]23)cc1 [Example 21] gave an MIC [1] of 3.13 µg/mL (≈ 4.51 µM), an MIC [2] of 0.2 µg/mL (≈ 0.288 µM) and an MIC [3] of 0.78 µg/mL (≈ 1.12 µM). It also gave an MIC [4] of 3.13 µg/mL (≈ 4.51 µM), an MIC [5] of 3.13 µg/mL (≈ 4.51 µM) and an MIC [6] of 12.5 µg/mL (≈ 18 µM). The MIC [7] was 1.56 µg/mL (≈ 2.25 µM) and the MIC [8] was 3.13 µg/mL (≈ 4.51 µM).
Cn1nnnc1SCC1=C(C(=O)O)N2C(=O)[C@@H](NC(=O)[C@H](NC(=O)c3cnc4cccnc4c3O)c3ccc(NC(N)=O)cc3)[C@H]2SC1 [Example 22] was tested, and the MIC [1] was 3.13 µg/mL (≈ 4.53 µM), the MIC [2] was 0.1 µg/mL (≈ 0.145 µM) and the MIC [3] was 0.78 µg/mL (≈ 1.13 µM). For the same molecule, the MIC [4] was 6.25 µg/mL (≈ 9.04 µM), the MIC [5] was 1.56 µg/mL (≈ 2.26 µM) and the MIC [6] was 12.5 µg/mL (≈ 18.1 µM). The MIC [7] was 1.56 µg/mL (≈ 2.26 µM) and the MIC [8] was 3.13 µg/mL (≈ 4.53 µM).
In the case of NC(=O)Nc1ccc([C@@H](NC(=O)c2cnc3cccnc3c2O)C(=O)N[C@@H]2C(=O)N3C(C(=O)O)=C(CSc4cnn[nH]4)CS[C@H]23)cc1 [Example 23], the MIC [1] is reported as 3.13 µg/mL (≈ 4.63 µM), the MIC [2] is reported as 0.2 µg/mL (≈ 0.296 µM) and the MIC [3] is reported as 1.56 µg/mL (≈ 2.31 µM). For the same molecule, the MIC [4] was 6.25 µg/mL (≈ 9.24 µM), the MIC [5] was 3.13 µg/mL (≈ 4.63 µM) and the MIC [6] was 12.5 µg/mL (≈ 18.5 µM). The MIC [7] was 1.56 µg/mL (≈ 2.31 µM) and the MIC [8] was 3.13 µg/mL (≈ 4.63 µM).
For NC(=O)Nc1ccc([C@@H](NC(=O)c2cnc3cccnc3c2O)C(=O)N[C@@H]2C(=O)N3C(C(=O)O)=C(CSc4nnc(S)s4)CS[C@H]23)cc1 [Example 24], the MIC [1] was 3.13 µg/mL (≈ 4.31 µM), the MIC [2] was 0.39 µg/mL (≈ 0.537 µM) and the MIC [3] was 1.56 µg/mL (≈ 2.15 µM). The MIC [4] was 6.25 µg/mL (≈ 8.61 µM), the MIC [5] was 3.13 µg/mL (≈ 4.31 µM) and the MIC [6] was 12.5 µg/mL (≈ 17.2 µM). The MIC [7] was 1.56 µg/mL (≈ 2.15 µM) and the MIC [8] was 3.13 µg/mL (≈ 4.31 µM).
